One block for each compound: values may come before it.
What was measured:
[1] = Table 1: tipranavir drug-drug interaction potential and routes of elimination of antiretrovirals; conditions: drug-drug interaction with tipranavir
[2] = Example 3: pharmacokinetic drug-drug interaction of tipranavir 1200 mg BID and delavirdine 400 mg TID, plasma levels by HPLC
Procedure: Baseline pharmacokinetic data for each drug were obtained under pharmacokinetic steady-state conditions following 7 days of dosing. Each drug was then co-administered for 10 days, at which time the pharmacokinetics of each was re-evaluated and compared with baseline data. […] All subjects were Caucasian. […] Pharmacokinetic analyses were based on results obtained in these subjects.
Detection was by UV absorbance at 260 nm.
Plasma samples were assayed for delavirdine concentrations using a validated, sensitive and specific isocratic high performance liquid chromatographic (HPLC) method: one for the upper concentration range, and one for the lower concentration range. […] The supernatant was mixed with buffer and directly injected. Chromatographic separation was achieved using a Brownlee cyano guard column and an analytical column, DuPont Zorbax® SB CN.
Treatment effects on pharmacokinetic parameters were assessed using Wilcoxon's Signed Rank Test.

[3] = Example 4: pharmacokinetic drug-drug interaction of tipranavir SEDDS 1250 mg BID and ritonavir oral solution 200 mg BID; assay type: in vivo, human; conditions: for CLPO / Cmin / Css: median (range)
[4] = Study 2: pharmacokinetic drug-drug interaction of tipranavir 600 or 900 mg BID and ritonavir 100-500 mg BID, plasma levels by HPLC; assay type: in vivo, human; conditions: for CLPO / Cmin / Css / AUC / Cmax / Tmax: median (range); for half-life / AUC / Cmax / Tmax: both sexes, human, plasma, oral; for half-life: harmonic mean (range), read-out: t½ (converted)
Procedure: Both groups received their assigned dose of tipranavir continuously throughout the study period. […] The pharmacokinetics of tipranavir when coadministered with ritonavir were evaluated and compared with baseline data, while the ritonavir data were compared to historical data. The study was conducted in 19 healthy volunteers (16 males and 3 females) with a mean age of 30 years (range, 19-52 years), height of 177.1 cm (range, 162.6-190.5 cm), and weight of 76.7 kg (range, 57.3-95.0 kg). Eighteen subjects were Caucasian […]. […] Pharmacokinetic analyses were based on those subjects completing the baseline evaluation and at least one period of concomitant drug administration. […] Detection was by UV absorbance at 260 nm. […] Ritonavir and the internal standard (IS) were extracted from human plasma by liquid-liquid extraction with an ethyl acetate mixture.

[5] = Study 1: pharmacokinetic drug-drug interaction of tipranavir 1350 mg BID and ritonavir 500 mg BID, plasma levels by HPLC; assay type: in vivo, human; conditions: for CLPO / Cmin / Css: median (range), n=10
From the text: Twelve subjects were Caucasian and two were of African descent. Ten subjects completed all aspects of the study. Pharmacokinetic analyses were based on the results obtained in these subjects. […] Detection was by UV absorbance at 260 nm. […] Ritonavir and the internal standard (IS) were extracted from human plasma by liquid-liquid extraction with an ethyl acetate mixture.

[6] = delavirdine 400 mg TID + tipranavir 1200 mg BID vs delavirdine alone
[7] = Tipranavir SEDDS SEC 1250mg BID + Ritonavir Oral Solution 200mg BID, N=21
[8] = Tipranavir SEDDS SEC 1250mg BID alone, N=22
[9] = both sexes, human, plasma, oral, 1250 mg
[10] = Tipranavir 600 mg BID + RTV 100 mg BID, n=7
[11] = Tipranavir 600 mg BID + RTV 500 mg BID, n=7
[12] = Tipranavir 600 mg BID alone, n=7
[13] = Tipranavir 900 mg BID + RTV 100 mg BID, n=6
[14] = Tipranavir 900 mg BID + RTV 500 mg BID, n=6
[15] = Tipranavir 900 mg BID alone, n=6
[16] = 600 mg, Tipranavir 600 mg BID alone, n=7
[17] = 900 mg, Tipranavir 900 mg BID alone, n=6
[18] = tipranavir 600 mg BID + ritonavir 100 mg BID vs alone
[19] = tipranavir 600 mg BID + ritonavir 500 mg BID vs alone
[20] = tipranavir 900 mg BID + ritonavir 100 mg BID vs alone
[21] = tipranavir 900 mg BID + ritonavir 500 mg BID vs alone
[22] = Tipranavir 1350 mg BID + Ritonavir 500 mg BID
[23] = Tipranavir 1350 mg BID alone, steady state
[24] = tipranavir 1350 mg BID + ritonavir 500 mg BID vs tipranavir alone

Potential for Clinically Significant Interaction [1]: High (and unfavorable) | decrease of delavirdine AUC by tipranavir ([2]; coadministration with tipranavir): > 95% | median delavirdine AUC value, fold lower [2, 6]: more than 20 fold | median trough delavirdine concentration, fold lower [2, 6]: more than 100 fold
SMILES: CC(C)Nc1cccnc1N1CCN(C(=O)c2cc3cc(NS(C)(=O)=O)ccc3[nH]2)CC1 [Delavirdine]

CLPO [3, 7]: 1.19 (0.47-2.29) L/h | Cmin [3, 7]: 62.1 (11.2-261) µM | Css [3, 7]: 145 (76-371) µM | CLPO [3, 8]: 12.7 (6.1-23.7) L/h | Cmin [3, 8]: 0.82(0.30-2.20) µM | Css [3, 8]: 13.6 (7.3-28.1) µM | AUC [3, 9]: 163 µM·h | Cmax [3, 9]: 56 µM | Tmax [3, 9]: 2 h | half-life ([3]; both sexes, human, plasma, oral, 1250 mg, read-out: t½ (converted)): 5.4 h | increase of tipranavir steady-state concentrations ([3]; ritonavir 200 mg vs same dose (1250 mg BID) of tipranavir alone): more than 10 fold | effect on apparent terminal half-life of tipranavir ([3]; tipranavir 1250 mg BID + ritonavir 200 mg BID): not significantly affected | increase of median Cmax values ([3]; tipranavir 1250 mg BID + ritonavir oral solution 200 mg BID vs tipranavir alone): approximately 5 fold | CLPO [4, 10]: 3.35 (2.44-6.07) L/h | Cmin [4, 10]: 3.14 (1.61-12.8) µM | Css [4, 10]: 24.8 (13.7-34.0) µM | CLPO [4, 11]: 2.23 (1.02-4.79) L/h | Cmin [4, 11]: 14.3 (4.70-32.5) µM | Css [4, 11]: 37.2 (17.3-81.0) µM | Cmin ([4]; Tipranavir 600 mg BID + RTV 500 mg BID, n=7, listed as tipranavir): 14.3 µM | CLPO [4, 12]: 31.3 (17.3-88.8) L/h | Cmin [4, 12]: 0.341 (0.165-0.929) µM | Css [4, 12]: 2.70 (0.94-4.79) µM | CLPO [4, 13]: 4.10 (2.45-7.86) L/h | Cmin [4, 13]: 3.62 (1.98-6.95) µM | Css [4, 13]: 30.6 (15.8-50.8) µM | CLPO [4, 14]: 1.64 (1.00-2.82) L/h | Cmin [4, 14]: 22.7 (9.91-63.2) µM | Css [4, 14]: 76.1 (44.1-124.8) µM | CLPO [4, 15]: 32.4 (20.8-53.1) L/h | Cmin [4, 15]: 0.499 (0.160-1.150) µM | Css [4, 15]: 3.88 (2.34-5.98) µM | half-life [4, 16]: 3.6 h | AUC [4, 16]: 32.5 µM·h | Cmax [4, 16]: 11.3 µM | Tmax [4, 16]: 2 h | half-life [4, 17]: 4.2 h | AUC [4, 17]: 46.5 µM·h | Cmax [4, 17]: 14.6 µM | Tmax [4, 17]: 2 h | half-life [4, 10]: 2.3 h | AUC [4, 10]: 297 µM·h | Cmax [4, 10]: 56.8 µM | Tmax [4, 10]: 2 h | half-life [4, 11]: 3.7 h | AUC [4, 11]: 446 µM·h | Cmax [4, 11]: 78.6 µM | Tmax [4, 11]: 2 h | half-life [4, 13]: 1.9 h | AUC [4, 13]: 368 µM·h | Cmax [4, 13]: 68.9 µM | Tmax [4, 13]: 3 h | half-life [4, 14]: 3.5 h | AUC [4, 14]: 913 µM·h | Cmax [4, 14]: 148 µM | Tmax [4, 14]: 2 h | predicted tipranavir concentration (target minimal therapeutic threshold) ([4]; extrapolated to a dose of ritonavir 30 mg BID): 1 µM | lowest median trough tipranavir concentration ([4]; in combination with ritonavir 100 mg BID): exceeded 3 µM | increase of plasma tipranavir concentrations ([4]; ritonavir 100 mg BID vs same dose of tipranavir alone): ~10 fold | increase of median AUC values of tipranavir [4, 18]: approximately 9 fold | increase of median Cmax values [4, 18]: 5 fold | increase of median trough tipranavir concentrations [4, 18]: approximately 9 fold | increase of median AUC values of tipranavir [4, 19]: approximately 14 fold | increase of median Cmax values [4, 19]: 7 fold | increase of median trough tipranavir concentrations [4, 19]: approximately 40 fold | trough concentration ([4]; tipranavir 600 mg with ritonavir 500 mg): exceeding 3 µM | increase of median AUC values of tipranavir [4, 20]: approximately 8 fold | increase of median Cmax values [4, 20]: 5 fold | increase of median trough tipranavir concentrations [4, 20]: approximately 7 fold | increase of median AUC values of tipranavir [4, 21]: approximately 20 fold | increase of median Cmax values [4, 21]: 10 fold | increase of median trough tipranavir concentrations [4, 21]: approximately 45 fold | CLPO [5, 22]: 1.9 (1.2-3.8) L/h | Cmin [5, 22]: 42 (12-84) µM | Css [5, 22]: 100 (49-161) µM | Cmin ([5]; Tipranavir 1350 mg BID + Ritonavir 500 mg BID, listed as tipranavir): 42 µM | CLPO [5, 23]: 31 (11-100) L/h | Cmin [5, 23]: 0.78 (0.34-1.42) µM | Css [5, 23]: 6.1 (1.9-16.8) µM | increase of mean steady-state plasma tipranavir concentrations (Css) [5, 24]: 12 fold | increase of median tipranavir Cmax value in the presence of ritonavir [5, 24]: approximately 5.6 fold | increase of median tipranavir Cmin values [5, 24]: 45 fold | effect of delavirdine on the pharmacokinetics of tipranavir ([2]; tipranavir 1200 mg BID + delavirdine 400 mg TID, steady state): no effect
SMILES: CCC[C@@]1(CCc2ccccc2)CC(O)=C([C@H](CC)c2cccc(NS(=O)(=O)c3ccc(C(F)(F)F)cn3)c2)C(=O)O1 (relative stereo) [Tipranavir, [R-(R*,R*)]-N-[3-[1-[5,6-Dihydro-4-hydroxy-2-oxo-6-(2-phenylethyl)-6-propyl-2H-pyran-3-yl]propyl]phenyl]-5-(trifluoromethyl)-2-pyridinesulfonamide]
effect on apparent terminal half-life of tipranavir ([4]; tipranavir 600 mg BID with concomitant ritonavir): no prolongation of the apparent terminal half-life | effect on apparent terminal half-life of tipranavir ([4]; tipranavir 900 mg BID with concomitant ritonavir): No prolongation of the apparent terminal half-life | effect on tipranavir elimination half-life (t½) [5, 24]: not accompanied by a prolongation of the elimination half-life
